Type in all cases: cell-based
Assay [1] deals with wild-type E. coli A-1261. The experiment in a line: MIC against wild-type E. coli A-1261 with or without alkaline phosphatase or esterase. To be noted: Escherichia coli. On the procedure: Minimal Inhibitory Concentrations (MICs; mg/L) were determined in cation-adjusted Mueller-Hinton Broth by a microdilution method following the description given in “Methods for Dilution Antimicrobial Susceptibility Tests for Bacteria that Grow Aerobically”, Approved standard, 7th ed., a Clinical and Laboratory Standards Institute (CLSI) Document M7-A7, Wayne, Pa., USA (2006).
The compounds of Examples 37, 50, 51 and 74 were tested against wild-type E. coli A-1261 in the absence of alkaline phosphatase or esterase, in the presence of an alkaline phosphatase and in the presence of an esterase. The corresponding antibacterial test results are given in Table 2 hereafter (MICs in mg/L).

The test system of assay [2] is K. pneumoniae A-651. The experiment in a line: Bacterial growth minimal inhibitory concentration (microdilution, cation-adjusted Mueller-Hinton Broth). To be noted: multiply-resistant strain (in particular quinolone-resistant); for MIC: Klebsiella pneumoniae, A651, read-out: MIC for K. Pneumoniae A-651. In short, it runs like this: (§1)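 Broth microdilution in cation-adjusted Mueller-Hinton Broth per CLSI M7-A7, MIC in mg/L. K. pneumoniae A-651 is multiply resistant, including to quinolones. E. coli ATCC25922 and P. aeruginosa ATCC27853 are quinolone-sensitive.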
For orientation: In broth dilution the organism is exposed to a series of concentrations in liquid medium.

The subject of assay [3] is E. coli ATCC25922. Described as above. To be noted: quinolone-sensitive strain; for MIC: Escherichia coli, ATCC25922, read-out: MIC for E. coli ATCC25922. In short, it runs like this: as §1
In assay [4] the test system is P. aeruginosa ATCC27853. Described as above. The following applies: for MIC: Pseudomonas aeruginosa, ATCC27853, quinolone-sensitive strain, read-out: MIC for P. aeruginosa ATCC27853; for MIC for P. aeruginosa ATCC27853: quinolone-sensitive strain. In short, it runs like this: as §1
[5] abbreviates: read-out: MIC for E. coli A-1261 In the absence of alkaline phosphatase or esterase.
[6] abbreviates: read-out: MIC for E. coli A-1261 In the presence of an alkaline phosphatase (2 i.U./mL).
The mark [7] stands for this setting: read-out: MIC for E. coli A-1261 In the presence of an esterase (10 i.U./mL).

In brackets after ≈: the same amount, converted by molar mass. Read-outs that look alike come from different tables or passages of the source. A value given as a limit tells only on which side of the number the result lay.

Regarding `C[C@@](CCN1Cc2cc(C#CC#CC3(NC(=O)OCOP(=O)(O)O)CC3)cn2C1=O)(C(=O)NO)S(C)(=O)=O` [Example 74, (phosphonooxy)methyl (R)-(1-((2-(4-(hydroxyamino)-3-methyl-3-(methylsulfonyl)-4-oxobutyl)-3-oxo-2,3-dihydro-1H-pyrrolo[1,2-c]imidazol-6-yl)buta-1,3-diyn-1-yl)cyclopropyl)carbamate], the MIC in assay [1] (setting [5]) came to 4 µg/mL (≈ 6.99 µM); in assay [1] (setting [6]) it was 0.25 µg/mL; in assay [1] (setting [7]), 4 µg/mL.
With `C[C@@](CCN1Cc2cc(C#CC#CC3(COP(=O)(O)O)CC3)cn2C1=O)(C(=O)NO)S(C)(=O)=O` [Example 51, (R)-(1-((2-(4-(hydroxyamino)-3-methyl-3-(methylsulfonyl)-4-oxobutyl)-3-oxo-2,3-dihydro-1H-pyrrolo[1,2-c]imidazol-6-yl)buta-1,3-diyn-1-yl)cyclopropyl)methyl dihydrogen phosphate], the MIC in assay [1] (setting [5]) is greater than 16 µg/mL; in assay [1] (setting [6]), 0.5 µg/mL; in assay [1] (setting [7]) it was 16 µg/mL.
For `CN(C)CC(=O)OCC1(c2ccc(C#Cc3cc4n(c3)C(=O)N(CC[C@](C)(C(=O)NO)S(C)(=O)=O)C4)cc2)CC1.Cl` [Example 37, (R)-(1-(4-((2-(4-(hydroxyamino)-3-methyl-3-(methylsulfonyl)-4-oxobutyl)-3-oxo-2,3-dihydro-1H-pyrrolo[1,2-c]imidazol-6-yl)ethynyl)phenyl)cyclopropyl)methyl dimethylglycinate hydrochloride], the MIC in assay [2] turned out to be 1 µg/mL; in assay [3], 0.5 µg/mL; in assay [4], 4 µg/mL; in assay [1] (setting [5]), 0.25 µg/mL; in assay [1] (setting [6]) it was 0.125 µg/mL; in assay [1] (setting [7]) it was 0.25 µg/mL.
For `CN(C)CC(=O)OCC1(C#CC#Cc2cc3n(c2)C(=O)N(CC[C@](C)(C(=O)NO)S(C)(=O)=O)C3)CC1.Cl` [Example 50, (R)-(1-((2-(4-(hydroxyamino)-3-methyl-3-(methylsulfonyl)-4-oxobutyl)-3-oxo-2,3-dihydro-1H-pyrrolo[1,2-c]imidazol-6-yl)buta-1,3-diyn-1-yl)cyclopropyl)methyl dimethylglycinate hydrochloride], the MIC was determined as 2 µg/mL in assay [1] (setting [5]), 1 µg/mL in assay [1] (setting [6]) and 0.5 µg/mL in assay [1] (setting [7]).
Consider `C[C@@](CCN1Cc2cc(C#CC#C[C@@]3(F)C[C@@H]3CO)cn2C1=O)(C(=O)NO)S(C)(=O)=O` (relative stereo) [Example 67, (R)-4-(6-(((1R*,2R*)-1-fluoro-2-(hydroxymethyl)cyclopropyl)buta-1,3-diyn-1-yl)-3-oxo-1H-pyrrolo[1,2-c]imidazol-2(3H)-yl)-N-hydroxy-2-methyl-2-(methylsulfonyl)butanamide], for which the “MIC for K. Pneumoniae A-651” value in assay [2] turned out to be 0.5 µg/mL. Further, the “MIC for E. coli ATCC25922” value in assay [3] came out at 0.125 µg/mL. Besides, in assay [4], the “MIC for P. aeruginosa ATCC27853” value came out at 0.5 µg/mL.
On to `CC(C)(C)OC(=O)N1CC(O)(c2ccc(C#Cc3cc4n(c3)C(=O)N(CC[C@](C)(C(=O)NO)S(C)(=O)=O)C4)cc2)C1` [Example 59, tert-butyl (R)-3-hydroxy-3-(4-((2-(4-(hydroxyamino)-3-methyl-3-(methylsulfonyl)-4-oxobutyl)-3-oxo-2,3-dihydro-1H-pyrrolo[1,2-c]imidazol-6-yl)ethynyl)phenyl)azetidine-1-carboxylate], for which the MIC in assay [2] amounted to 1 µg/mL (≈ 1.7 µM); in assay [3] it was 1 µg/mL (≈ 1.7 µM); in assay [4], 8 µg/mL (≈ 13.6 µM).
Consider `C[C@@](CCN1Cc2cc(C#CC#CC3(COC(=O)OCOP(=O)(O)O)CC3)cn2C1=O)(C(=O)NO)S(C)(=O)=O` [Example 75, (R)-(1-((2-(4-(hydroxyamino)-3-methyl-3-(methylsulfonyl)-4-oxobutyl)-3-oxo-2,3-dihydro-1H-pyrrolo[1,2-c]imidazol-6-yl)buta-1,3-diyn-1-yl)cyclopropyl)methyl((phosphonooxy)methyl)carbonate], for which the “MIC for K. Pneumoniae A-651” value in assay [2] was determined as 2 µg/mL. Moreover, the “MIC for E. coli ATCC25922” value in assay [3] is 1 µg/mL. The “MIC for P. aeruginosa ATCC27853” value in assay [4] was found to be 2 µg/mL.
Turning to `C[C@@](CCN1Cc2cc(C#Cc3ccc(C4(CO)CCC4)cc3)cn2C1=O)(C(=O)NO)S(C)(=O)=O` [Example 40, (R)-N-hydroxy-4-(6-((4-(1-(hydroxymethyl)cyclobutyl)phenyl)ethynyl)-3-oxo-1H-pyrrolo[1,2-c]imidazol-2(3H)-yl)-2-methyl-2-(methylsulfonyl)butanamide], the MIC is 0.25 µg/mL (≈ 0.5 µM) in assay [2], no more than 0.063 µg/mL in assay [3] and 1 µg/mL (≈ 2 µM) in assay [4].
The like results for `C[C@]1(CO)C[C@@H]1C#CC#Cc1cc2n(c1)C(=O)N(CC[C@](C)(C(=O)NO)S(C)(=O)=O)C2` [Example 61, (R)-N-hydroxy-4-(6-(((1R,2S)-2-(hydroxymethyl)-2-methylcyclopropyl)buta-1,3-diyn-1-yl)-3-oxo-1H-pyrrolo[1,2-c]imidazol-2(3H)-yl)-2-methyl-2-(methylsulfonyl)butanamide] were, in that order, 0.25 µg/mL (≈ 0.559 µM), 0.25 µg/mL (≈ 0.559 µM) and 0.25 µg/mL (≈ 0.559 µM).
In the same order, the values of `C[C@@](CCN1Cc2cc(C#CC#C[C@@H]3CC[C@@H](N)CO3)cn2C1=O)(C(=O)NO)S(C)(=O)=O` [Example 65, (R)-4-(6-(((2S,5R)-5-aminotetrahydro-2H-pyran-2-yl)buta-1,3-diyn-1-yl)-3-oxo-1H-pyrrolo[1,2-c]imidazol-2(3H)-yl)-N-hydroxy-2-methyl-2-(methylsulfonyl)butanamide] are 8 µg/mL (≈ 17.3 µM), 2 µg/mL (≈ 4.32 µM) and 1 µg/mL (≈ 2.16 µM).
On to `C[C@@](CCN1Cc2cc(C#CC#C[C@@H]3C[C@@H](O)[C@@H](O)C3)cn2C1=O)(C(=O)NO)S(C)(=O)=O` [Example 33, (R)-4-(6-(((1S,3R,4S)-3,4-dihydroxycyclopentyl)buta-1,3-diyn-1-yl)-3-oxo-1H-pyrrolo[1,2-c]imidazol-2(3H)-yl)-N-hydroxy-2-methyl-2-(methylsulfonyl)butanamide], for which, in assay [2], the “MIC for K. Pneumoniae A-651” value was found to be 0.5 µg/mL. Besides, the “MIC for E. coli ATCC25922” value in assay [3] stood at 0.5 µg/mL. Besides, in assay [4], the “MIC for P. aeruginosa ATCC27853” value came out at 1 µg/mL.
For `CC(CCN1Cc2cc(C#Cc3ccc(CO)cc3F)cn2C1=O)(C(=O)NO)S(C)(=O)=O` (racemic) [RE3, (RS)-4-(6-((2-fluoro-4-(hydroxymethyl)phenyl)ethynyl)-3-oxo-1H-pyrrolo[1,2-c]imidazol-2(3H)-yl)-N-hydroxy-2-methyl-2-(methylsulfonyl)butanamide], the MIC in assay [2] came out at 1 µg/mL (≈ 2.16 µM); in assay [3], 0.5 µg/mL (≈ 1.08 µM); in assay [4] it was 4 µg/mL (≈ 8.63 µM).

Source of the values: patent publication US10106544B2, “1,2-dihydro-3H-pyrrolo[1,2-C]imidazol-3-one derivatives and their use as antibacterial agents” (priority 2014, dated 2018).
